The target of one test is T1, human CSNK1D (Homo sapiens, UniProt P48730).
T1 construct: expressed in transfected cells
Description: Whole Cell nBRET CSNK1D Binding Assay. As to conditions: living CHO cells stably expressing human CSNK1D tagged with nanoluciferase; NanoBret tracer 130 nM; 2 hours at 37 C.

The target of test [1] is T2, human recombinant GST cleaved CSNK1D (Homo sapiens, UniProt P48730).
T2 construct: GST (cleaved yes); purchased University of Dundee clone DU 19064
Description: Purified Enzyme Assay (ADP-Glo CSNK1D Kinase Assay). Conditions: 2 nM CSNK1D; peptide substrate 150 μM; ATP 20 μM; 45 minutes at room temperature. The class given is biochemical. The method, boiled down: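 Percent activity derived from ADP-Glo quantification of ADP produced. Reactions: compound dose-response with human recombinant GST-cleaved CSNK1D, ATP and substrate peptide PLSRTL-pS-VASLPGL, incubated 45 min at room temperature.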
Background: ADP-Glo turns the ADP formed in a reaction into a luminescent signal.

T1 sequence (P48730 whole entry): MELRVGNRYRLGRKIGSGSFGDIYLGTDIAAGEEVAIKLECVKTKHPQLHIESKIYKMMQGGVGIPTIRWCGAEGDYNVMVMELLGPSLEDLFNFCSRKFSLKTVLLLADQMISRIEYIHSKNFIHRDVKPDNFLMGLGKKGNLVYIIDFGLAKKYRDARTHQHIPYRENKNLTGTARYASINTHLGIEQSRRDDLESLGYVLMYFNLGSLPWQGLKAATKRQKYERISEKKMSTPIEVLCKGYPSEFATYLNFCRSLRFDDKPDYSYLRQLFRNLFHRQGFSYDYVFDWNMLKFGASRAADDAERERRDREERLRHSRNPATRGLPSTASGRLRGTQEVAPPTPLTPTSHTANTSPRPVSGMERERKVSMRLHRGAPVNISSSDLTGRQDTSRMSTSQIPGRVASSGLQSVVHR
T2 sequence (P48730 whole entry): as above

By IC50 is commonly meant the concentration at which inhibition is half-maximal. With `Cc1cc(-c2c(-c3ccc(F)cc3)nn3c2OCC2(C3)CC2(F)F)c2cn[nH]c2n1` (single isomer, unassigned) [Example 474, *S-2,2-Difluoro-2′-(4-fluorophenyl)-3′-6-methyl-1H-pyrazolo[3,4-b]pyridin-4-yl)-5′H,7′H-spiro[cyclopropane-1,6′-pyrazolo[5,1-b][1,3]oxazine]], the values for the IC50 (on human CSNK1D; in test [1]) were 2 nM and 1 nM, respectively.

Regarding `Fc1ccc(-c2nn3c(c2-c2ccnc4[nH]ncc24)OCC2(C3)CC2(F)F)cc1` (single isomer, unassigned) [Example 477, (*R)-2,2-Difluoro-2′-(4-fluorophenyl)-3′-1H-pyrazolo[3,4-b]pyridin-4-yl)-5′H,7′H-spiro[cyclopropane-1,6′-pyrazolo[5,1-b][1,3]oxazine]], the values for the IC50 (at human CSNK1D; in test [1]) were 33 nM and 6 nM, respectively.

For the compound `CC[C@H]1Cn2nc(-c3ccc(F)cn3)c(-c3ccnc4[nH]ncc34)c2CO1` (single isomer, unassigned) [Example 96, (*S)-6-Ethyl-2-(5-fluoropyridin-2-yl)-3-(1H-pyrazolo[3,4-b]pyridin-4-yl)-6,7-dihydro-4H-pyrazolo[5,1-c][1,4]oxazine], the IC50 came to 2730 nM at human CSNK1D and 32 nM in test [1].

On to `Cc1cc(-c2c(-c3ccc(F)cn3)nn3c2CCC2C3C2(F)F)c2cn[nH]c2n1` (racemic) [Example 59, (Racemic) 6,6-Difluoro-2-(5-fluoropyridin-2-yl)-3-(6-methyl-1H-pyrazolo[3,4-b]pyridin-4-yl)-5,5a,6,6a-tetrahydro-4H-cyclopropa[e]pyrazolo[1,5-a]pyridine], for which the IC50 at human CSNK1D worked out at 82 nM; in test [1], 4 nM.

As for `Fc1ccc(-c2nn3c(c2-c2ccnc4[nH]ncc24)CC[C@@H]2[C@H]3C2(F)F)cc1` (stereo in doubt) [Example 356, (5a*R,6a*S-6,6-Difluoro-2-(4-fluorophenyl)-3-(1H-pyrazolo[3,4-b]pyridin-4-yl)-5,5a,6,6a-tetrahydro-4H-cyclopropa[e]pyrazolo[1,5-a]pyridine], the IC50 stood at 2 nM on human CSNK1D and 1 nM in test [1].

For `Fc1ccc(-c2nn3c(c2-c2ccnc4[nH]ccc24)CCCC3)nc1` [Example 3, 4-[2-(5-Fluoro-2-pyridyl)-4,5,6,7-tetrahydropyrazolo[1,5-a]pyridin-3-yl]-1H-pyrrolo[2,3-b]pyridine], the IC50 on human CSNK1D is 41 nM; in test [1], 8 nM.

In the case of `Fc1ccc(-c2nn3c(c2-c2ccnc4[nH]ncc24)CCCC3)nc1` [Example 35, 4-[2-(5-Fluoro-2-pyridyl)-4,5,6,7-tetrahydropyrazolo[1,5-a]pyridin-3-yl]-1H-pyrazolo[3,4-b]pyridine], the results for the IC50 (at human CSNK1D; in test [1]) were 374 nM and 11 nM, respectively.

Regarding `Cc1cc(-c2c(-c3ccc(F)cn3)nn3c2OC(C)CC3)c2cn[nH]c2n1` (single isomer, unassigned) [Example 200, (*S)-2-(5-Fluoro-2-pyridyl)-5-methyl-3-(6-methyl-1H-pyrazolo[3,4-b]pyridin-4-yl)-6,7-dihydro-5H-pyrazolo[5,1-b][1,3]oxazine], the IC50 worked out at 56 nM at human CSNK1D and 4 nM in test [1].

As to `[2H]C([2H])([2H])OC[C@@]1(F)CCc2c(-c3cc(C)nc4[nH]ncc34)c(-c3ccc(F)cn3)nn2C1` (single isomer, unassigned) [Example 311, (*R)-4-(6-Fluoro-2-(5-fluoropyridin-2-yl)-6-((methoxy-d3)methyl)-4,5,6,7-tetrahydropyrazolo[1,5-a]pyridin-3-yl)-6-methyl-1H-pyrazolo[3,4-b]pyridine], the IC50 at human CSNK1D turned out to be 1410 nM; in test [1], 92 nM.

For the compound `Fc1ccc(-c2nn3c(c2-c2c(F)cnc4[nH]ncc24)OC[C@H]2C[C@H]2C3)nc1` (stereo in doubt) [Example 481, (5a*S,6a*R)-3-(5-Fluoro-1H-pyrazolo[3,4-b]pyridin-4-yl)-2-(5-fluoropyridin-2-yl)-5a,6,6a,7-tetrahydro-5H-cyclopropa[e]pyrazolo[5,1-b][1,3]oxazepine], the figures for the IC50 (on human CSNK1D; in test [1]) were 65 nM and 6 nM, respectively.

For `Cc1cc(-c2c(-c3ccc(F)cc3)nn3c2[C@H]2C[C@H]2C3)c2cn[nH]c2n1` (single isomer, unassigned) [Example 277, (3b*S,4a*R)-2-(4-Fluorophenyl)-3-(6-methyl-1H-pyrazolo[3,4-b]pyridin-4-yl)-3b,4,4a,5-tetrahydrocyclopropa[3,4]pyrrolo[1,2-b]pyrazole], the IC50 at human CSNK1D came to 43 nM; in test [1], 6 nM.

Consider `CCn1ncc2cc(-c3c(-c4ccc(F)cc4)nn4c3COCC4C)cnc21` (stereo not drawn) [Example 370, 3-(1-Ethyl-1H-pyrazolo[3,4-b]pyridin-5-yl)-2-(4-fluorophenyl)-7-methyl-6,7-dihydro-4H-pyrazolo[5,1-c][1,4]oxazine], for which the figures for the half-maximal inhibitory concentration (IC50) (on human CSNK1D; in test [1]) were above 10000 nM and 524 nM, respectively.

With `Fc1ccc(-c2nn3c(c2-c2ccnc4[nH]ncc24)[C@H]2CC[C@@H]3C2)cc1` (single isomer, unassigned) [Example 61], the results for the IC50 (at human CSNK1D; in test [1]) were 21 nM and 5 nM, respectively.

For `[2H]C([2H])([2H])[C@@]1(C#N)CCc2c(-c3ccnc4[nH]ncc34)c(-c3ccc(F)cn3)nn2C1` (single isomer, unassigned) [Example 324, (*R)-2-(S-Fluoropyridin-2-yl)-6-(methyl-d3)-3-(1H-pyrazolo[3,4-b]pyridin-4-yl)-4,5,6,7-tetrahydropyrazolo[1,5-a]pyridine-6-carbonitrile], the half-maximal inhibitory concentration (IC50) on human CSNK1D was found to be 112 nM; in test [1], 37 nM.

Regarding `Cc1cc(-c2c(-c3ccc(Cl)c(F)c3)nn3c2COCC3)c2cn[nH]c2n1` [Example 73, 2-(4-Chloro-3-fluoro-phenyl)-3-(6-methyl-1H-pyrazolo[3,4-b]pyridin-4-yl)-6,7-dihydro-4H-pyrazolo[5,1-c][1,4]oxazine], the IC50 was 569 nM at human CSNK1D and 120 nM in test [1].

In the case of `[2H]C([2H])([2H])[C@@]1(C(F)(F)F)Cn2nc(-c3ccc(F)cn3)c(-c3ccnc4[nH]nc(C)c34)c2CO1` (single isomer, unassigned) [Example 426, (*S)-2-(5-Fluoropyridin-2-yl)-6-(methyl-d3)-3-(3-methyl-1H-pyrazolo[3,4-b]pyridin-4-yl)-6-(trifluoromethyl)-6,7-dihydro-4H-pyrazolo[5,1-c][1,4]oxazine], the IC50 at human CSNK1D was 87 nM; in test [1] it was 17 nM.

Turning to `CC1(C)Cn2nc(-c3ccc(F)cn3)c(-c3ccn4nccc4c3)c2CO1` [Example 140, 2-(5-Fluoropyridin-2-yl)-6,6-dimethyl-3-(pyrazolo[1,5-a]pyridin-5-yl)-6,7-dihydro-4H-pyrazolo[5,1-c][1,4]oxazine], the results for the IC50 (at human CSNK1D; in test [1]) were 122 nM and 18 nM, respectively.

On to `Fc1ccc(-c2nn3c(c2-c2c(F)cnc4[nH]ncc24)OCC2(C3)CC2(F)F)cc1` (stereo not drawn) [Example 471, 2,2-Difluoro-3′-(5-fluoro-1H-pyrazolo[3,4-b]pyridin-4-yl)-2′-(4-fluorophenyl)-5′H,7′H-spiro[cyclopropane-1,6′-pyrazolo[5,1-b][1,3]oxazine]], for which the IC50 at human CSNK1D is 3 nM; in test [1], 2 nM.

On to `CC1(C)Cn2nc(-c3ccc(F)cn3)c(-c3ccnc(NC(=O)c4ccccc4)c3)c2CO1` [Example 136, N-(4-(2-(5-Fluoropyridin-2-yl)-6,6-dimethyl-6,7-dihydro-4H-pyrazolo[5,1-c][1,4]oxazin-3-yl)pyridin-2-yl)benzamide], for which the results for the IC50 (at human CSNK1D; in test [1]) were 6 nM and 2 nM, respectively.

Consider `[2H]C([2H])([2H])C1(C([2H])([2H])[2H])Cc2c(-c3cc(C)nc4[nH]ncc34)c(-c3ccc(F)cc3)nn2C1` [Example 242, 4-[2-(4-Fluorophenyl)-5,5-bis(methyl-d3)-4,6-dihydropyrrolo[1,2-b]pyrazol-3-yl]-6-methyl-1H-pyrazolo[3,4-b]pyridine], for which the IC50 was found to be 4 nM at human CSNK1D and 2 nM in test [1].

In the case of `Fc1ccc(-c2nn3c(c2-c2c(F)cnc4[nH]ncc24)OC[C@@H]2C[C@@H]2C3)nc1` (stereo in doubt) [Example 480, (5a*R,6a*S)-3-(5-Fluoro-1H-pyrazolo[3,4-b]pyridin-4-yl)-2-(5-fluoropyridin-2-yl)-5a,6,6a,7-tetrahydro-5H-cyclopropa[e]pyrazolo[5,1-b][1,3]oxazepine], the IC50 is 228 nM on human CSNK1D and 10 nM in test [1].

`Fc1ccc(-c2nn3c(c2-c2ccnc4[nH]ncc24)CO[C@@H](C(F)(F)F)C3)cc1` [Example 101, (R)-2-(4-Fluorophenyl)-3-(1H-pyrazolo[3,4-b]pyridin-4-yl)-6-(trifluoromethyl)-6,7-dihydro-4H-pyrazolo[5,1-c][1,4]oxazine]: the IC50 at human CSNK1D is 24 nM; in test [1], 2 nM.

On to `CC(=O)Nc1cc(-c2c(-c3ccc(F)cc3)nn3c2C[C@H](F)C3)ccn1` [Example 229, N-[4-[(5S)-5-Fluoro-2-(4-fluorophenyl)-5,6-dihydro-4H-pyrrolo[1,2-b]pyrazol-3-yl]-2-pyridyl]acetamide], for which the IC50 came to 2 nM at human CSNK1D and 1 nM in test [1].

Take `COCCC1(C)CCc2c(-c3ccnc4[nH]ncc34)c(-c3ccc(F)cn3)nn2C1` (single isomer, unassigned) [Example 318, (*S)-4-[2-(5-Fluoro-2-pyridyl)-6-(2-methoxyethyl)-6-methyl-5,7-dihydro-4H-pyrazolo[1,5-a]pyridin-3-yl]-1H-pyrazolo[3,4-b]pyridine]: the IC50 on human CSNK1D amounted to 40 nM; in test [1] it was 3 nM.

The values are drawn from patent publication US20230339970A1, “CASEIN KINASE 1 DELTA MODULATORS” (priority 2020, published 2023).
